Results reported in BindingDB's records for doi:10.1111/cbdd.12708 (North-West University, 2016).

How the values were obtained:
[1] = target: T1, Amine oxidase [flavin-containing] A (Homo sapiens, UniProt P21397); assay: MAO Inhibition Assay
T1 sequence (P21397 whole entry): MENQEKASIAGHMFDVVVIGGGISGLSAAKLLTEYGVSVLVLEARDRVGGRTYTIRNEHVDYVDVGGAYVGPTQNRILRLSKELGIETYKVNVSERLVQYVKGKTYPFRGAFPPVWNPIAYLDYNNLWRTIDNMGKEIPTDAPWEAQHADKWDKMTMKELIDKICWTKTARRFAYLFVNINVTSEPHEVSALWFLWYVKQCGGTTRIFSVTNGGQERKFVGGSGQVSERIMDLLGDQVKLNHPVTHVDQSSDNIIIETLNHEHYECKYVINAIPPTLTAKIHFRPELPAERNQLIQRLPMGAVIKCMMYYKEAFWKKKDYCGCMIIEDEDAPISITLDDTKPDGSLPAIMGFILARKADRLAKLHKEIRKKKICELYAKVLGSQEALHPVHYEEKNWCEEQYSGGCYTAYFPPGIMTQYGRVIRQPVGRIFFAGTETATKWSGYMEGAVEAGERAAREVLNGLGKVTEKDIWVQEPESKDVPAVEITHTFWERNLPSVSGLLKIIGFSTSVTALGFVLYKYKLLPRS
Method: (§1) The protocol for measuring IC50 values for the inhibition of MAO-A and MAO-B has been reported in detail in a recent publication (26). The recombinant human MAO enzymes were used, and kynuramine served as non-selective MAO substrate. The MAOs oxidize kynuramine to ultimately yield a fluorescent metabolite, 4-hydroxyquinoline, which was measured by fluorescence spectrophotometry (kex = 310; kem = 400 nm).

Amine oxidase = target: T2, Amine oxidase (Homo sapiens, UniProt Q8TBI1); assay: MAO Inhibition Assay
T2 sequence (Q8TBI1 whole entry): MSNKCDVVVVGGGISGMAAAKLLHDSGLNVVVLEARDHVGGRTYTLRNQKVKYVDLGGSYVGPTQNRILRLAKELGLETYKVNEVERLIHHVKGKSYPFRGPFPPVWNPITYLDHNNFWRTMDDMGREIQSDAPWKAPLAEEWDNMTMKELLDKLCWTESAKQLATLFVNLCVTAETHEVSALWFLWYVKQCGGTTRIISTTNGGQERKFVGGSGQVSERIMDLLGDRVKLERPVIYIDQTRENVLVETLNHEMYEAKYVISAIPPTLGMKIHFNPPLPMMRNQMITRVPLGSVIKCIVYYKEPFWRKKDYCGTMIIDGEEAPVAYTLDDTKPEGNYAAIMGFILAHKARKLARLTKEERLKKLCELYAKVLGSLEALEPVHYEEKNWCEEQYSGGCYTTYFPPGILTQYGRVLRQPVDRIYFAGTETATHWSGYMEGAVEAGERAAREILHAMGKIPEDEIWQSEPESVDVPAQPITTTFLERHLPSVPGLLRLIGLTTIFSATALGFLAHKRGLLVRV
Method: as §1

Row | Compound | IC50 [1] | IC50 (Amine oxidase)
1 | O=C1C(Cl)=C(Cl)C(=O)c2ccccc21 [2,3-dichloro-1,4-dihydronaphthalene-1,4-dione] | 2 µM | 2.61 µM
2 | O=C1C(O)=C(Cl)C(=O)c2ccccc21 [2-chloro-3-hydroxy-1,4-dihydronaphthalene-1,4-dione (5g)] |  | 3.45 µM
3 | O=C1C(Cl)=C(OCCCCO)C(=O)c2ccccc21 [2-chloro-3-(4-hydroxybutoxy)-1,4-dihydronaphthalene-1,4-dione (5h)] | 5.06 µM | 3.06 µM
4 | CC1=CC(=O)c2c(O)cccc2C1=O | 4.91 µM | 1.09 µM
5 | O=C1C=CC(=O)c2c(O)ccc(O)c21 [5,8-dihydroxy-1,4-naphthoquinone] |  | 0.86 µM
6 | CC1=C(CCl)C(=O)c2ccccc2C1=O [2-(chloromethyl)-3-methyl-1,4-dihydronaphthalene-1,4-dione (5f)] |  | 10.8 µM
7 | CC(C)=CCC(O)C1=CC(=O)c2c(O)ccc(O)c2C1=O (centres undefined) [5,8-dihydroxy-2-(1-hydroxy-4-methylpent-3-enyl)naphthalene-1,4-dione] | 1.5 µM | 1.01 µM
8 | O=C1C=CC(=O)c2ccccc21 [1,4-dihydronaphthalene-1,4-dione] | 3.43 µM | 8.4 µM
9 | COC1=CC(=O)c2ccccc2C1=O | 20.4 µM | 24.8 µM
10 | O=C1C=CC(=O)c2c(O)cccc21 [5-hydroxy-1,4-dihydronaphthalene-1,4-dione] | 1.71 µM | 4.36 µM
11 | CC1=CC(=O)c2ccccc2C1=O [Vitamin K3] | 10.2 µM | 3.02 µM
